The text below walks through data of a melting point compilation (Tetko et al.; mined from patent text by program, amines drawn as free bases though some values may be those of a salt).

`NS(=O)(=O)c1cccc(NC(=O)c2cnn3c(C4CC4)cc(-c4ccc(C(F)(F)F)cc4)nc23)c1` came in with a melting point of 249 to 250 °C.
Compound `O=c1cc(C(F)(F)F)nc[nH]1` returned a melting point of 157 °C.
In the case of `CSCC(C)(C)NC(=O)c1c(I)cccc1C(=O)Nc1ccc(Cn2nc(C(F)(F)F)cc2C(F)(F)F)cc1C` it was 83 to 87 °C; in that of `CC(C)Cc1ccc(C(C)C(=O)ON(C(N)=O)C(C)c2cc3ccccc3s2)cc1` (stereo not given), 123 to 128 °C; in that of `Cc1nnc(-c2ccc3occ(-c4ccc(C(=O)N(C)C)c(F)c4)c3c2)o1`, 152 to 153 °C.
Then `C#CCOc1cc(Oc2c(F)cccc2F)ncn1`, with 67.2 °C; and `NC(=O)c1sc2nc(N3CCC(NCC(O)c4cccc5c4OCO5)CC3)cc(C(F)(F)F)c2c1N` (stereo not given), with 221 to 223 °C; and `Cn1c2ccc([N+](=O)[O-])cc2c2cc(C(=O)N3CCOCC3)sc21`, with 250 to 252 °C.
Then `CCc1nc2c(N3CCOCC3)ncn(CC)c-2n1`, with 103 to 107 °C; and `CCC1CC2C3CCC4=CC(=O)CCC4C3CCC2(C)C1OC(=O)CBr` (stereo not given), with 118 to 120 °C.
As for `CCCCCCCCCCCCCCCCCCNC(=O)OCC(CO)NC(=O)OC` (stereo not given), the melting point lay within 84 to 85 °C.
In the case of `NC(=O)c1cc2cc(Br)ccc2o1` it was 210 to 213 °C; in that of `CCCOc1nc(N[C@@H](C)Cc2ccccc2)c2cnn(-c3ccccc3)c2n1`, 134 to 136 °C; in that of `c1ccc(-c2nc3ccccc3s2)nc1`, 133 to 134 °C.
In turn, `COc1ccc(C)cc1NC(=O)Nc1ccc2c(c1)CCN(C(=O)Oc1ccc(C(=O)O)cc1Cl)C2` came in with a melting point of 196 to 198 °C.
Then `COc1ccncc1NC(=O)c1c[nH]c2c1C(=O)CCC2`, with 209 to 210 °C.
Then `N#Cc1cnn2c1N(C(=O)CN1CCN(C(=O)Nc3cccc(C(F)(F)F)c3)CC1)CC=C2c1cccc(C(F)(F)F)c1`, with 147 to 149 °C.
For the compound `COC(=O)C1=C(C)NC(C)=C([N+](=O)[O-])C1c1cccc2ncc(-c3ccccc3)cc12` (stereo not given), the melting point came to 262 °C.
With `CCOC(=O)c1sc(-c2ccc(C(F)(F)F)cc2)nc1COC(C)=O`, the melting point was determined as 82 °C.
In turn, `CC(=O)NC1(c2ccc(CN3CCN(c4ccccn4)CC3)cc2)CC1` came in with a melting point of 145 to 147 °C.
Regarding `CC(C)C(=O)NCCCCN1CCN(c2csc3cc(F)ccc23)CC1`, the melting point lay in the range of 130 to 131 °C.
In the case of `CCCn1c(=O)c2[nH]c(C3CCC(C(=O)OC)C3)nc2n(CCC)c1=O` (stereo not given) it was 188 to 194 °C; in that of `O=C(O)C(=O)c1ccc(Br)s1`, 119 to 120 °C; in that of `C=CCOc1cc(-c2ncnc(C(F)F)c2Cl)c(F)cc1Cl`, 69 to 71 °C.
Compound `COc1cc(Cl)nc(Nc2ccccc2)n1` came in with a melting point of 101 to 103 °C.
The compound `CC1(C)CCC(C)(C)c2nc(C(=O)CBr)cnc21` returned a melting point of more than 300 °C.
In turn, `c1cnc2cc(C34CCCN3CCC4)oc2c1` showed a melting point of 39 to 41 °C.
In the case of `CNCC1Cc2cc(C(F)(F)F)cc(-c3cc(F)ccc3F)c2O1` (stereo not given), the melting point is 138 to 140 °C.
Compound `COc1ccc(S(=O)(=O)N(Cc2ccccc2)C(C)C(=O)NO)cc1` (stereo not given) yielded a melting point of 127 to 129 °C.
Turning to `O=C(Cn1cncn1)c1ccc(Cl)cc1`, the melting point was 151 to 153 °C.
`CCOC(=O)NC(=NCCCCc1ccccn1)NCCCc1c[nH]cn1` gave a melting point of 92 to 94 °C.
In the case of `CCC(CC)N1CSc2cnc(N)nc21` it was more than 232 °C; in that of `CC/C(=C\CCC(O)(CC)CC)c1ccc(CCc2ccc(CO)c(CO)c2)s1`, 77 °C.
For `O=c1c2ccc(F)cc2ncn1Cc1ccccc1`, the melting point was 110 to 111 °C.
`CNC(=O)c1ccccc1Nc1nc(Nc2ccc3c(c2)CNC(=O)CCN3)ncc1Cl`: the melting point was 267 to 268 °C.
In the case of `COCCOC(=O)Nc1cccc(C)c1CNc1cccn2c(C=O)c(C)nc12` it was 153 to 155 °C; in that of `Oc1ccc2oc(-c3ccc(F)cc3)nc2c1`, 166 to 168 °C; in that of `NC(=O)N(C(=O)c1c(F)cccc1Cl)c1ccc(SC(F)(F)F)cc1`, 202 °C.
In turn, `CC(=O)OCCN1CCNC1=Nc1ccccc1N1CCOCC1` yielded a melting point of 89 to 91 °C.
`COc1ccc2c(c1)C(=O)C1CCCCN1C2` (stereo not given): the melting point was 117 to 119 °C.
Then `CCCCc1nc(O)c(CC(=O)OCC)c(=O)n1Cc1ccc(C(=O)OC)cc1`, with 170 °C; and `COc1ccc(C(=C/C=C/C(=O)NCCCc2ccncc2)c2ccc(OC)cc2)cc1`, with 90 to 92 °C; and `COC(=O)[C@H]1[C@@H]2CC[C@@H](C2)[C@@H]1C(=O)O`, with 59 to 60 °C.
As to `O=C(c1nnn(Cc2cc(C(F)(F)F)cc(C(F)(F)F)c2)c1-n1ccnc1)c1c(CO)noc1-c1ccccc1Cl`, the melting point came out at 149 °C.
With `CC1(C)Cc2cc([N+](=O)[O-])cc(OCC3CO3)c2O1` (stereo not given), the melting point turned out to be 108 °C.
For the compound `CC(=O)NS(=O)(=O)c1ccc(-n2cc(C)cc2-c2ccc(C)c(C)c2)cc1`, the melting point fell in the range of 192 to 193 °C.
In the case of `CC(C)(C)c1cc2c(cc1O)OC(C(=O)O)=CO2` it was 144 °C.
`O=C(O)c1cc([N+](=O)[O-])cc(S(F)(F)(F)(F)F)c1`: the melting point was determined as 140 °C.
Then `CCOC(=O)c1cn(-c2ccccc2)nc1OCc1oc2cc(OCc3nc(-c4ccccc4)oc3C)ccc2c1-c1ccccc1`, with 143 to 144 °C.
`COC(=O)COCc1cc2cc(Cl)ccc2n1S(=O)(=O)c1ccccc1` came in with a melting point of 98 to 100 °C.
Then `Cn1nc(-c2cccc(-n3ncc4cc(C(C)(C)C)cc(F)c4c3=O)c2CO)cc(Nc2cnc(C(F)(F)F)cn2)c1=O`, with 250 to 254 °C; and `CCCc1c(OCCCSc2nc3ccccc3[nH]2)ccc(C(C)=O)c1O`, with 149 to 150 °C; and `O=C1CC(c2cccc(-n3cnnn3)c2)=Nc2ccc(-c3ccccc3F)cc2N1`, with 179 to 180 °C.
Consider `CCn1c(=O)[nH]c2c3cccnc3ccc21`, for which the melting point was in the range of 258 to 259 °C.
Regarding `COc1cc(O)c2c(c1OC)C(=O)C(O)=C(C)C2=O`, the melting point was 218 to 220 °C.
`O=c1cc(-c2ccccc2)oc2cc(OCCn3ccnc3)ccc12` registered a melting point of 155 to 159 °C.
Then `CCCc1nc(SC(F)F)c(C(=O)O)n1Cc1ccc(-c2ccccc2S(=O)(=O)NC(=O)NCc2cccs2)cc1`, with 142 °C.
Take `CCn1ncc2c1ncc1c(OCCN(C)C)nc3ncnn3c12`: the melting point was in the range of 149 to 150 °C.
Then `S=c1nc(-c2ccncc2)[nH]n1Cc1ccccc1`, with 160 to 162 °C.
For `CCCc1c(Cl)c2cc(Br)ccc2oc1=O`, the melting point was in the range of 96 to 97 °C.
Consider `CCCc1c(OCCCCCOc2ccc(CCC(=O)O)cc2CCC(=O)O)ccc2c1OCCC2=O`, for which the melting point was 108 to 109 °C.
Consider `CCOC(=O)c1cc(-c2ccc(OC)cc2)[nH]c1N`, for which the melting point fell in the range of 141 to 142 °C.
In the case of `CC(=O)NC1=C(N)C(=O)c2ccccc2C1=O` it was 233 to 234 °C; in that of `C=CCN1C(=O)c2cccc(C)c2Oc2ncccc21`, 58 to 60 °C.
For `Cc1cccc(C2=NC(C)(C(C)C)C(=S)N2)c1` (stereo not given), the melting point lay in the range of 122 to 123 °C.
`N=c1sc2cc(OC(F)(F)F)ccc2n1CCS` displayed a melting point of 110 °C.
Consider `CCCCCS(=O)(=O)NC(=O)/C=C/c1ccc(OC(COCC)COCC)cc1Oc1ncc(C(F)(F)F)cc1Cl`, for which the melting point lay in the range of 83 to 85.5 °C.
As for `O=C1CN(C(=O)Cc2ccccc2Cl)N(Cc2ccc(Cl)cc2)C(=O)N1`, the melting point was 224 °C.
In the case of `CCC(C=CC(C)C1CCC2C3CCC4=CC(=O)CCC4(C)C3CCC12C)C(C)C` (stereo not given) it was 121 to 123 °C; in that of `CN1C(=O)C(NC(=O)Nc2ccccc2[N+](=O)[O-])N=C(c2ccccc2)c2ccccc21` (stereo not given), 260 to 261 °C; in that of `O=C(O)C(=O)CC(=O)c1cn(Cc2ccccc2)c2ccccc2c1=O`, 141 to 142 °C.
For the compound `CNS(=O)(=O)c1cccnc1S(=O)(=O)NC(=O)Nc1nc(OC)cc(OC)n1`, the melting point lay within 147 to 148 °C.
`O[C@@H]1CCCC[C@H]1Nc1nc(Cl)ncc1Cl` (relative stereo) showed a melting point of 139 to 142 °C.
Then `OC(c1cccnc1)c1cc(F)ccc1F` (stereo not given), with 79 to 80 °C; and `Cc1c(C=O)nc(-c2ccc(C(F)(F)F)cc2)n1C`, with 144 °C; and `CCOc1ncc(C(=O)O)c2c(N)cccc12`, with 159 to 165 °C.
Then `Cc1cc(-c2cccc(Cl)c2C=O)ccc1F`, with 74 to 79 °C; and `COc1cc(OC)cc(C(=O)CC(=O)c2ccc(O)cc2O)c1`, with 267 to 268 °C.
With `CC1(C)C=C(c2ccccn2)c2cc(C(=O)O)ccc2O1`, the melting point lay within 238 to 240 °C.
In the case of `NCCN1CCN(CC(=O)N2c3ccccc3C(=O)Nc3cccnc32)CC1` it was 188 to 190 °C.
Then `O=C1Nc2ccc(Cl)cc2C1c1ncnc2nn(C3CCCCC3)cc12` (stereo not given), with 294 to 298 °C; and `COc1ccc(O)c(C2(O)C(=O)Nc3cccc(Br)c32)n1` (stereo not given), with 172 to 175 °C; and `Nc1ccc2c(c1)COc1cc(Nc3ccc(C(F)(F)F)cc3N)ccc1C2=O`, with 93.9 °C.
In the case of `COc1ccc2c(Cc3c(Cl)cncc3Cl)nncc2c1C=CCCCc1ccccc1` it was 121 to 123 °C; in that of `COc1ccc2c(c1)C[C@@H](C(N)=O)CC2`, 159 to 161 °C; in that of `CCOP(=O)(NCc1cccc(-c2nc(=O)c3ccccc3s2)n1)OCC`, 135 to 136 °C.
In the case of `CC(C)OC(=O)OCOC(=O)[C@H]1[C@@H]2CC[C@@](N)(C(=O)O)[C@@H]21`, the melting point is 196 to 197 °C.
Compound `COc1ccc2c(c1)Cc1nnc(OC)n1C=C2` returned a melting point of 176 to 177 °C.
The compound `CNC(=O)N(O)CCCNC(=O)c1cccc(Oc2ccccc2)c1` gave a melting point of 175 to 177 °C.
`O=Cc1cc(O)ccc1-c1cccc(C(F)(F)F)c1` had a melting point of 100 to 102 °C.
